Reference: patent publication EP0549002A1, “Method for the preparation of an antiseptic composition containing clindamycin-hydrochloride and polymyxin” (priority 1991, dated 1993)

How the values were obtained:
[1] = tested on: Pasteurella haemolytica 3R188 and 6R132; assay: MIC by plate dilution method (horseblood-agar); format: cell-based; conditions: both P. haemolytica isolates; single agent; observed during 24 hours
Procedure: Two clinical isolates of Pasteurella haemolytica were studied. The bacteria were isolated from calves and identified. The isolates included P. haemolytica 3R188 and 6R132.
The strength of the inoculating suspension was 2 MacFarland. The plates were observed during 24 hours after incubation.

[2] = tested on: Mycoplasma hyorhinis type strain BTS-7; assay: MIC by serial broth dilution method (Friis broth, glucose metabolism colour change); format: cell-based; conditions: single agent; read at day 5; 37°C aerobic
Procedure: Friis-broth was added to each well.

[3] = Acute toxicity (general statement); format: in vivo; conditions: in combination with Clindamycin; mammals and humans

**Q.** Which “minimal inhibitory concentrations (MICs)” value [1] does the source give for Polymyxin E (Colistin) here?
**A.** 1,6 µg/ml

**Q.** What about the MIC [2] of the same substance?
**A.** > 50 µg/mL

**Q.** What about the acute toxicity [3] of the same substance?
**A.** strikingly reduced
